Laboratory results published in the supplement of paper PMC10307832.

Assays:
Assay in all cases: relative viability (nuclei count vs DMSO), 5 days (fraction); higher = more cells survive
[1] = compound: CC(C)C[C@H](NC(=O)[C@H](CCc1ccccc1)NC(=O)CN1CCOCC1)C(=O)N[C@@H](Cc1ccccc1)C(=O)N[C@@H](CC(C)C)C(=O)[C@@]1(C)CO1 [Carfilzomib] + CS(=O)(=O)CCNCc1ccc(-c2ccc3ncnc(Nc4ccc(OCc5cccc(F)c5)c(Cl)c4)c3c2)o1 [Lapatinib] (partner 2 µM)
How it was run: (§1)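 Relative viability divides the nuclei count in treated wells by that in vehicle wells. Lung cancer cell lines were seeded in 1536-well plates, dosed by pin tool the next day, and fixed and stained after 5 days in one step with final 0.05% Triton X-100, 1% formaldehyde and 1 ug/ml Hoechst. Dosing was a single drug or a fixed anchor-drug dose plus five library-drug doses (not always all listed) in √10 steps, and values are medians of duplicate plates imaged at 4×.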

[2] = compound: O=C(c1cc(Cc2n[nH]c(=O)c3ccccc23)ccc1F)N1CCN(C(=O)C2CC2)CC1 [Olaparib] + CS(=O)(=O)N1CCN(Cc2cc3nc(-c4cccc5[nH]ncc45)nc(N4CCOCC4)c3s2)CC1 [Pictilisib] (partner 1 µM)
How it was run: as §1

[3] = compound: CC(C)C[C@H](NC(=O)[C@H](CCc1ccccc1)NC(=O)CN1CCOCC1)C(=O)N[C@@H](Cc1ccccc1)C(=O)N[C@@H](CC(C)C)C(=O)[C@@]1(C)CO1 [Carfilzomib] + Cc1nc(Nc2ncc(C(=O)Nc3c(C)cccc3Cl)s2)cc(N2CCN(CCO)CC2)n1 [Dasatinib] (partner 0.075 µM)
How it was run: as §1

[4] = compound: C[C@@H](Oc1cc(-c2cnn(C3CCNCC3)c2)cnc1N)c1c(Cl)ccc(F)c1Cl [Crizotinib] + O=C(c1cc(Cc2n[nH]c(=O)c3ccccc23)ccc1F)N1CCN(C(=O)C2CC2)CC1 [Olaparib] (partner 8 µM)
How it was run: as §1

Cell Line	relative viability ([1]; first compound 0.001 µM)	relative viability ([1]; first compound 0.003162 µM)	relative viability ([1]; first compound 0.01 µM)	relative viability ([1]; first compound 0.03162 µM)	relative viability ([1]; first compound 0.1 µM)	relative viability ([2]; first compound 0.08 µM)	relative viability ([2]; first compound 0.253 µM)	relative viability ([2]; first compound 2.53 µM)	relative viability ([2]; first compound 8 µM)	relative viability ([3]; first compound 0.001 µM)	relative viability ([3]; first compound 0.003162 µM)	relative viability ([3]; first compound 0.01 µM)	relative viability ([3]; first compound 0.03162 µM)	relative viability ([3]; first compound 0.1 µM)	relative viability ([4]; first compound 0.01 µM)	relative viability ([4]; first compound 0.03162 µM)	relative viability ([4]; first compound 0.1 µM)	relative viability ([4]; first compound 0.3162 µM)	relative viability ([4]; first compound 1 µM)
NCI-H1666	0.611	0.755	0.747	0.407	0.193	0.637	0.33	0.488	0.52	0.812	0.878	0.817	0.568	0.352	0.711	0.788	0.819	0.695	0.771
NCI-H1734	1.03	1.11	1.02	0.317	0.203	0.469	0.471	0.419	0.336	0.462	0.503	0.487	0.2	0.148	0.63	0.574	0.624	–	0.608
NCI-H1755	1.05	1.12	1.02	0.922	0.279	0.553	0.383	0.405	0.338	0.428	0.45	0.479	0.365	0.263	0.779	0.867	0.854	0.923	0.827
NCI-H1792	0.794	0.896	0.939	0.985	0.697	0.265	0.241	0.265	0.217	0.753	0.9	0.918	0.657	0.649	0.505	0.458	0.378	–	0.37
NCI-H1915	0.937	1.02	0.973	0.586	0.0673	0.928	0.845	0.746	0.473	0.271	0.344	0.299	0.174	0.102	0.228	0.257	0.259	0.222	0.26
NCI-H1944	0.762	0.858	0.7	0.793	0.326	0.363	0.319	0.328	0.351	0.214	0.233	0.186	0.203	0.135	0.414	0.423	0.378	0.424	0.461
NCI-H1975	0.76	0.911	0.389	0.116	0.135	0.309	0.27	0.284	0.266	–	0.33	0.144	0.0922	0.107	0.806	0.743	0.794	0.749	0.774
NCI-H1993	0.729	0.89	0.704	0.632	0.493	0.827	0.839	0.719	0.869	0.604	0.597	0.581	0.467	0.453	0.919	0.948	–	0.924	0.9
NCI-H2009	1.02	1.37	0.828	0.0609	0.0756	0.996	0.71	0.693	0.475	0.293	0.386	0.3	0.113	0.0713	0.666	0.712	0.697	0.685	0.741
NCI-H2023	0.734	0.979	0.925	0.302	0.0574	0.286	0.195	0.245	0.275	0.569	0.698	0.59	0.181	0.082	0.449	0.498	0.521	0.408	0.451
NCI-H2085	0.663	0.843	0.714	0.444	0.252	0.468	0.433	0.427	0.368	0.239	0.256	0.255	0.249	0.192	0.737	0.74	0.755	0.752	0.823
NCI-H2087	0.823	1.35	0.829	0.112	0.116	0.967	0.797	0.8	0.508	0.781	0.994	0.465	0.0405	0.0695	0.614	0.59	0.595	0.397	0.716
NCI-H2126	0.75	0.798	0.784	0.765	0.513	0.544	0.504	0.513	0.556	0.655	0.641	0.705	0.655	0.268	0.81	0.936	0.952	0.897	0.907
NCI-H2170	0.264	0.263	0.269	0.312	0.207	0.346	0.277	0.305	0.332	0.56	0.519	0.832	0.352	0.237	0.558	0.625	0.642	0.558	0.62
NCI-H2228	1.28	1.23	0.752	0.104	0.161	0.429	0.418	0.292	0.336	0.539	0.526	0.442	0.0721	0.0819	0.539	0.595	0.624	0.716	0.668
NCI-H2347	0.976	1.09	0.979	0.306	0.51	1.28	0.557	0.683	0.547	0.335	–	0.338	0.197	0.173	0.584	0.57	0.568	0.554	0.578
NCI-H2405	–	1.42	1.05	0.645	0.152	0.524	0.406	0.426	0.469	–	0.218	0.203	0.247	0.188	0.794	0.837	0.906	0.751	0.901
